Laboratory results from publication PMC10476022 (RSC Advances, 2023).
“Also recorded” adds a separate entry of the source.

Legend:
hAChE = target: T1, hAChE (Homo sapiens, UniProt P22303); experiment: biochemical; conditions: for Selectivity ratio: (IC50 of BuChE)/(IC50 of AChE); for IC50: tris-HCl buffer pH 8.0, read-out: IC50 ± SE hAChE
T1 construct: purchased Sigma Aldrich
Protocol: (§1) Himedia supplied Acetylthiocholine iodide (AthCI), Butyrylthiocholine iodide (BthCI), and 5,5′-dithiobis (2-nitrobenzoic acid) (DTNB-reagent). […] AChE (50 μL, 1.00 U mL^−1) or BuChE (50 μL, 0.6 U mL^−1) and 20 μL of the test or standard compounds were incubated in a 96 well plate for 30 minutes at room temperature. […] The IC50 values were determined by measuring the absorbance of the test and standard substances. Three independent runs of the assays were conducted in triplicate.

hBuChE = target: T2, hBuChE (Homo sapiens, UniProt P06276); experiment: biochemical; type: biochemical; conditions: for IC50: tris-HCl buffer pH 8.0, read-out: IC50 ± SE hBuChE
T2 construct: purchased Sigma Aldrich
Protocol: as §1

[1] = Antioxidant potential by DPPH assay
Description: Assessment of the toxicity is the prerequisite study for the synthetic derivatives. […] AChE enzyme provides the site for the aggregation of the Aβ1–42.

SH-SY5Y cell line = experiment: Cell line-based toxicity study (MTT assay); conditions: 72 h
Protocol: In recent decades, in vitro cell line research has become commonplace since they are useful for primary optimization and mechanistic investigations before toxicological studies on animals.[29]
Briefly, the cell lines (density 1 × 10^4 cells per wells) were plated in 96 well plates and incubated for 24 h at 37 °C in a humidified atmosphere with 5% CO2. […] The absorbance was measured at 570 nm, and the percent cell viability was calculated. Each treatment was executed in triplicate and data were presented as a percentage of the control.

Aβ1–42 = test system: T3, Aβ1–42; experiment: AChE-induced Aβ1–42 aggregation assay (ThT); type: biochemical
T3 construct: Aβ1–42, purchased from Sigma, was dissolved in 10 mM phosphate buffer; purchased Sigma
Protocol: The Aβ oligomers and aggregates formed with or without AChE and metal ions induce multifaceted toxicity leading to neuronal cell death. […] Aβ1–42, purchased from Sigma, was dissolved in 10 mM phosphate buffer (PBS) of pH 7.5 to get a stock concentration of […]. The test compounds were dissolved in the DMSO and further diluted with PBS. Different proportions of the Aβ1-42: Inhibitor (1 : 0.05, 1 : 1, 1 : 2) were used in the ThT assay. […] The mixtures were incubated at room temperature for 48 hours in the dark.

T1 sequence (P22303 32-614): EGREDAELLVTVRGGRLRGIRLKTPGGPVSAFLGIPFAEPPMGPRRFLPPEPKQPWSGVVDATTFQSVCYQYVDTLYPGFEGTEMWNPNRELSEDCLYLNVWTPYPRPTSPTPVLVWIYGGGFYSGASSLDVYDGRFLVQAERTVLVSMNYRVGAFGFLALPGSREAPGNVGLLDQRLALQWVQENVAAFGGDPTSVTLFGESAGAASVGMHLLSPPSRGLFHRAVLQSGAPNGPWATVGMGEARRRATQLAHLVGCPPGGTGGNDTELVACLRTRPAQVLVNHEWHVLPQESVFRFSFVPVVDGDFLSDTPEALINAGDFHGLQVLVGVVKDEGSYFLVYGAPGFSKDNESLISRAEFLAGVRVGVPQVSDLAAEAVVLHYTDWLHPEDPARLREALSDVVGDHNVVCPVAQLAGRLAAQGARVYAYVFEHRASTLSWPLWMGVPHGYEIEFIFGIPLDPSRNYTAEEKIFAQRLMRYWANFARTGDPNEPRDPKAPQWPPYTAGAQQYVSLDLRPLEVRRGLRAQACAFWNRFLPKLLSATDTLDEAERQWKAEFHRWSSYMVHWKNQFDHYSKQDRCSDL

Compound	Selectivity ratio (hAChE)	IC50 (hAChE) [µM]	IC50 (hBuChE) [µM]	% free radicle scavenging, mean ± SE ([1]; 50 μM) [%]	% free radicle scavenging, mean ± SE ([1]; 100 μM) [%]	BuChE inhibition (in words) (hBuChE)	concentration with no significant toxicity (SH-SY5Y cell line) [µM]	effect on AChE-induced Aβ1–42 aggregation (in words) (Aβ1–42; 0.5, 10, 20 μM, 48 h incubation)	AChE-induced Aβ aggregation inhibited (Aβ1–42; tested at 0.5, 10 and 20 μM) [%]
COc1ccc2c(c1)c(CC(=O)NN=Cc1c(O)cccc1O)c(C)n2C(=O)c1ccc(Cl)cc1 [IND-40, (1-(4-Chlorobenzoyl)-5-methoxy-2-methyl-1H-indol-3-yl)-N′-(2,6-dihydroxybenzylidene)aceto-hydrazide]	9.77	70.54 ± 0.133	689.12 ± 0.128	24.10 ± 0.889	50.39 ± 0.930	–	–	–	–
COc1ccc2c(c1)c(CC(=O)NN=Cc1cccc(O)c1)c(C)n2C(=O)c1ccc(Cl)cc1 [IND-24, (1-(4-Chlorobenzoyl)-5-methoxy-2-methyl-1H-indol-3-yl)-N′-(3-hydroxybenzylidene) aceto-hydrazide]	7.83	12.5 ± 0.143	98.18 ± 0.12	17.68 ± 0.478	34.34 ± 1.333	–	–	–	–
COc1cccc(C=NNC(=O)Cc2c(C)n(C(=O)c3ccc(Cl)cc3)c3ccc(OC)cc23)c1 [IND-25, (1-(4-Chlorobenzoyl)-5-methoxy-2-methyl-1H-indol-3-yl)-N′-(3-methoxybenzylidene) aceto-hydrazide]	–	264.23 ± 0.102	> 1000	11.51 ± 0.748	27.99 ± 1.127	inactive on the BuChE enzyme	–	–	–
O=C1O[C@H]([C@@H](O)CO)C(O)=C1O [Ascorbic acid, reference compound]	–	–	–	42.66 ± 1.491	76.76 ± 0.708	–	–	–	–
COc1ccc2c(c1)c(CC(=O)NN=Cc1ccccc1OC)c(C)n2C(=O)c1ccc(Cl)cc1 [IND-31, (1-(4-Chlorobenzoyl)-5-methoxy-2-methyl-1H-indol-3-yl)-N′-(2-methoxybenzylidene)aceto-hydrazide]	–	421.22 ± 0.086	> 1000	9.75 ± 0.625	26.43 ± 0.887	inactive on hBuChE	–	–	–
COc1ccc2c(c1)c(CC(=O)NN=Cc1ccc(O)cc1)c(C)n2C(=O)c1ccc(Cl)cc1 [IND-30, (1-(4-Chlorobenzoyl)-5-methoxy-2-methyl-1H-indol-3-yl)-N′-(4-hydroxybenzylidene)aceto-hydrazide]	22.92	4.16 ± 0.063	95.34 ± 0.144	15.19 ± 0.881	30.65 ± 1.010	–	≤ 30000	effective only at the higher dose (20 μM); also recorded: decreased Aβ aggregation in a concentration-dependent manner; also recorded: active at 20 μM	~50
COc1ccc2c(c1)c(CC(=O)NN=Cc1cccc(O)c1O)c(C)n2C(=O)c1ccc(Cl)cc1 [IND-42, (1-(4-Chlorobenzoyl)-5-methoxy-2-methyl-1H-indol-3-yl)-N′-(2,3-dihydroxybenzylidene)aceto-hydrazide]	5.44	122.75 ± 0.086	668.22 ± 0.133	18.21 ± 0.598	38.87 ± 1.012	–	–	–	–
